IC50 data for 31 molecules are collected here from US20260258064A1 (SIRONAX LTD., priority 2023, published 2026).

For this experiment, the target named is T1, SARM1 (50-724) (Homo sapiens, UniProt Q6SZW1).
T1 construct: Purified SARM1 (50-724) with a final concentration of 2 nM was pre-incubated with a test compound
T1 sequence (Q6SZW1 50-724): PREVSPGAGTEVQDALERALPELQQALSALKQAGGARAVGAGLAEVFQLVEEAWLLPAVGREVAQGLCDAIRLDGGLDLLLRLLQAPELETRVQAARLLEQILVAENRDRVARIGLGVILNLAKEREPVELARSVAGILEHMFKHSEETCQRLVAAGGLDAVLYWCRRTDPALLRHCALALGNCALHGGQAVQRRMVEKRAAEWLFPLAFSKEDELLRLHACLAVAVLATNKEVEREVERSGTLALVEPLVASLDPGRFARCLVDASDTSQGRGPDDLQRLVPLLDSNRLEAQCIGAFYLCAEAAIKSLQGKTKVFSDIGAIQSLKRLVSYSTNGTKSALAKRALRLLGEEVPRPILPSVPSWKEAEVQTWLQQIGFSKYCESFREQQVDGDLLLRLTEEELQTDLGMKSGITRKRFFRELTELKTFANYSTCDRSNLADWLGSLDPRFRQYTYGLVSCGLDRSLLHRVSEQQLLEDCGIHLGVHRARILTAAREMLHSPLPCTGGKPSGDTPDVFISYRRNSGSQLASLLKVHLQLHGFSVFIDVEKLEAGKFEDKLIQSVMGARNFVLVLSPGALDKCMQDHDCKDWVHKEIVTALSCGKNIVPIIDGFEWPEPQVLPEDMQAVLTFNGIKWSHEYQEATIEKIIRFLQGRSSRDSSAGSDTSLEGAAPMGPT
The experiment can be described thus: SARM1 (50-724) enzymatic assay (LC-MS/MS). The experiment is classed as biochemical. Conditions: Purified SARM1 (50-724) 2 nM, NMN as activator, NAD+ as substrate, 1 h at room temperature, read-out: IC50 (SARM1 inhibitory activity). The procedure, abridged:
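Human SARM1 (50-724), 2 nM, pre-incubated 15 min at room temperature with compound in Dulbecco's PBS. Reaction started with 200 µM NMN (activator) plus […] NAD^+ substrate, run 1 h at room temperature, quenched with 70% acetonitrile. Turnover quantified by LC-MS/MS; IC50 reported.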
Broadly, the IC50 is the concentration needed to halve the response being measured. Turning to `FC(F)(F)Oc1cnc(-n2cccn2)cc1-n1cnnc1-c1nc2cc(C(F)(F)F)ccc2[nH]1` [Compound 264, 2-(4-(2-(1H-pyrazol-1-yl)-5-(trifluoromethoxy)pyridin-4-yl)-4H-1,2,4-triazol-3-yl)-5-(trifluoromethyl)-1H-benzo[d]imidazole], the IC50 was ≤ 100 nM. Turning to `Cc1ccn(-c2cc(F)c3[nH]c(-c4nncn4-c4cnccc4C(F)(F)F)nc3c2)n1` [Compound 401, 7-fluoro-5-(3-methyl-1H-pyrazol-1-yl)-2-(4-(4-(trifluoromethyl)pyridin-3-yl)-4H-1,2,4-triazol-3-yl)-1H-benzo[d]imidazole], the IC50 is ≤ 100 nM. Regarding `FC(F)(F)c1ccc2[nH]c(-c3oncc3-c3cccc(Cl)c3Cl)nc2c1` [Compound 273, 4-(2,3-dichlorophenyl)-5-(5-(trifluoromethyl)-1H-benzo[d]imidazol-2-yl)isoxazole], the IC50 lay in the range of 100 to 500 nM. The same measure for `CS(=O)(=O)CCc1cc(-n2cnnc2-c2nc3cc(C(F)(F)F)ccc3[nH]2)c(OC(F)(F)F)cn1` [Compound 254, 2-(4-(2-(2-(methylsulfonyl)ethyl)-5-(trifluoromethoxy)pyridin-4-yl)-4H-1,2,4-triazol-3-yl)-5-(trifluoromethyl)-1H-benzo[d]imidazole]: ≤ 100 nM; for `FC(F)(F)c1ccc2[nH]c([C@H]3COC[C@H]3c3ccccc3)nc2c1` (single isomer, unassigned) [Compound 351]: > 1000 nM. With `Nc1nnc(-c2nc3cc(C(F)(F)F)cc(F)c3[nH]2)n1-c1cnccc1C(F)(F)F` [Compound 456, 5-(7-fluoro-5-(trifluoromethyl)-1H-benzo[d]imidazol-2-yl)-4-(4-(trifluoromethyl)pyridin-3-yl)-4H-1,2,4-triazol-3-amine] the figure was ≤ 100 nM; with `Cc1ccc2[nH]c(-c3nccn3C3CCCC3)nc2c1` [Compound 2, 2-(1-cyclopentylimidazol-2-yl)-5-methyl-1H-benzimidazole], 500 to 1000 nM. With `FC(F)(F)c1ccncc1-n1cnnc1-c1nc2c(-c3cccnc3)c(Cl)ccc2[nH]1` [Compound 334, 6-chloro-7-(pyridin-3-yl)-2-(4-(4-(trifluoromethyl)pyridin-3-yl)-4H-1,2,4-triazol-3-yl)-1H-benzo[d]imidazole] the figure was > 1000 nM; with `FC(F)(F)c1ccc2[nH]c(C3CSCC3c3ccccc3Cl)nc2c1` (stereo not shown) [Compound 340, 2-(4-(2-chlorophenyl)tetrahydrothiophen-3-yl)-5-(trifluoromethyl)-1H-benzo[d]imidazole], 100 to 500 nM. `FC(F)(F)Cc1ccccc1-n1cnnc1-c1nc2cc(C(F)(F)F)ccc2[nH]1` [Compound 248, 2-(4-(2-(2,2,2-trifluoroethyl)phenyl)-4H-1,2,4-triazol-3-yl)-5-(trifluoromethyl)-1H-benzo[d]imidazole]: the half-maximal inhibitory concentration (IC50) is > 1000 nM.

In the case of `FC(F)(F)c1ccncc1-n1cnnc1-c1nc2cc(C3CCCC3)ccc2[nH]1` [Compound 364, 5-cyclopentyl-2-(4-(4-(trifluoromethyl)pyridin-3-yl)-4H-1,2,4-triazol-3-yl)-1H-benzo[d]imidazole], the IC50 was ≤ 100 nM. Take `CCS(=O)(=O)Cc1nnc(-c2nc3cc(Cl)cc(F)c3[nH]2)n1-c1cccc(F)c1Cl` [Compound 193, 5-chloro-2-(4-(2-chloro-3-fluorophenyl)-5-((ethylsulfonyl)methyl)-4H-1,2,4-triazol-3-yl)-7-fluoro-1H-benzo[d]imidazole]: the half-maximal inhibitory concentration (IC50) is ≤ 100 nM. `FC(F)(F)Oc1cnccc1-n1cnnc1-c1nc2cc(C(F)(F)F)cc(Cl)c2[nH]1` [Compound 227, 7-chloro-2-(4-(3-(trifluoromethoxy)pyridin-4-yl)-4H-1,2,4-triazol-3-yl)-5-(trifluoromethyl)-1H-benzo[d]imidazole]: the half-inhibitory concentration (IC50) is ≤ 100 nM.

As for `FC(F)(F)c1ccc2[nH]c(-c3nncn3-c3c(C(F)(F)F)ccn4nccc34)nc2c1` [Compound 309, 5-(trifluoromethyl)-2-(4-(5-(trifluoromethyl)pyrazolo[1,5-a]pyridin-4-yl)-4H-1,2,4-triazol-3-yl)-1H-benzo[d]imidazole], the IC50 is ≤ 100 nM. The same measure for `FC(F)(F)c1ccncc1-n1cnnc1-c1nc2c(C3CC3)c(Cl)ccc2[nH]1` [Compound 333, 6-chloro-7-cyclopropyl-2-(4-(4-(trifluoromethyl)pyridin-3-yl)-4H-1,2,4-triazol-3-yl)-1H-benzo[d]imidazole]: 500 to 1000 nM. As for `FC(F)(F)c1ccc2[nH]c(-c3nncn3-c3cnccc3C(F)(F)F)nc2c1` [Compound 225, 5-(Trifluoromethyl)-2-(4-(4-(trifluoromethyl)pyridin-3-yl)-4H-1,2,4-triazol-3-yl)-1H-benzo[d]imidazole], the half-maximal inhibitory concentration (IC50) was ≤ 100 nM. Turning to `CC(C)(CO)c1ccc2[nH]c(-c3nncn3-c3cccc(Cl)c3Cl)nc2c1` [Example 103], the IC50 is ≤ 100 nM. With `Clc1cc(-c2ccc3[nH]c(-c4nncn4-c4cccc(Cl)c4Cl)nc3c2)[nH]n1` [Example 82, 5-(3-chloro-1H-pyrazol-5-yl)-2-(4-(2,3-dichlorophenyl)-4H-1,2,4-triazol-3-yl)-1H-benzo[d]imidazole] the figure was ≤ 100 nM; with `CS(=O)(=O)c1ccc(OC(F)(F)F)c(-n2cnnc2-c2nc3cc(C(F)(F)F)cc(F)c3[nH]2)c1` [Compound 217, 7-fluoro-2-(4-(5-(methylsulfonyl)-2-(trifluoromethoxy)phenyl)-4H-1,2,4-triazol-3-yl)-5-(trifluoromethyl)-1H-benzo[d]imidazole], ≤ 100 nM.

In the case of `Cn1nc(-n2cnnc2-c2nc3cc(C(F)(F)F)ccc3[nH]2)c(Cl)c1Cl` [Example 53, 2-(4-(4,5-Dichloro-1-methyl-1H-pyrazol-3-yl)-4H-1,2,4-triazol-3-yl)-5-(trifluoromethyl)-1H-benzo[d]imidazole], the IC50 is ≤ 100 nM. With `O=S1(=O)CC(c2nc3cc(C(F)(F)F)ccc3[nH]2)=C(c2ccccc2Cl)C1` [Compound 337, 3-(2-chlorophenyl)-4-(5-(trifluoromethyl)-1H-benzo[d]imidazol-2-yl)-2,5-dihydrothiophene 1,1-dioxide] the figure was > 1000 nM; with `FC(F)(F)c1ccc2[nH]c(C3CSCCN3c3ccccc3)nc2c1` (stereo not shown) [Compound 361, 4-phenyl-3-[5-(trifluoromethyl)-1H-benzimidazol-2-yl]thiomorpholine], > 1000 nM. With `Fc1cccc(-n2c(Cn3ccnn3)nnc2-c2nc3cc(C(F)(F)F)ccc3[nH]2)c1Cl` [Compound 383, 2-(5-((1H-1,2,3-triazol-1-yl)methyl)-4-(2-chloro-3-fluorophenyl)-4H-1,2,4-triazol-3-yl)-5-(trifluoromethyl)-1H-benzo[d]imidazole] the figure was ≤ 100 nM; with `Cc1ccc2[nH]c(-c3nncn3-c3cccc(Cl)c3Cl)nc2c1` [Example 5, 2-(4-(2,3-dichlorophenyl)-4H-1,2,4-triazol-3-yl)-5-methyl-1H-benzo[d]imidazole], ≤ 100 nM; with `COC(C)c1ccc2[nH]c(-c3nncn3-c3ccc(F)c(F)c3Cl)nc2c1` (stereo not shown) [Compound 155, 2-(4-(2-chloro-3,4-difluorophenyl)-4H-1,2,4-triazol-3-yl)-5-(1-methoxyethyl)-1H-benzo[d]imidazole], ≤ 100 nM. The same measure for `FC(F)(F)c1ccc2[nH]c(-c3nnc(S)n3-c3cccc(Cl)c3Cl)nc2c1` [Example 108, 4-(2,3-dichlorophenyl)-5-(5-(trifluoromethyl)-1H-benzo[d]imidazol-2-yl)-4H-1,2,4-triazole-3-thiol]: 100 to 500 nM; for `CCc1nnc(-c2nc3cc(C(F)(F)F)ccc3[nH]2)n1-c1cccc(Cl)c1Cl` [Compound 145, 2-(4-(2,3-dichlorophenyl)-5-ethyl-4H-1,2,4-triazol-3-yl)-5-(trifluoromethyl)-1H-benzo[d]imidazole]: ≤ 100 nM. On to `O=c1onc(-c2cccc(Cl)c2Cl)n1-c1nc2cc(C(F)(F)F)ccc2[nH]1` [Compound 32], for which the IC50 is > 1000 nM. The same measure for `OCCOc1cc(-n2cnnc2-c2nc3cc(C(F)(F)F)ccc3[nH]2)c(OC(F)(F)F)cc1F` [Compound 263, 2-(2-fluoro-4-(trifluoromethoxy)-5-(3-(5-(trifluoromethyl)-1H-benzo[d]imidazol-2-yl)-4H-1,2,4-triazol-4-yl)phenoxy)ethan-1-ol]: ≤ 100 nM; for `Cc1cc(-c2ccc3[nH]c(-c4nncn4-c4cccc(Cl)c4Cl)nc3c2)n(C)n1` [Example 74, 2-(4-(2,3-dichlorophenyl)-4H-1,2,4-triazol-3-yl)-5-(1,3-dimethyl-1H-pyrazol-5-yl)-1H-benzo[d]imidazole]: ≤ 100 nM; for `C=C(F)Cc1cc(F)c2[nH]c(-c3nncn3-c3cnccc3C(F)(F)F)nc2c1` [Compound 316, 7-fluoro-5-(2-fluoroallyl)-2-(4-(4-(trifluoromethyl)pyridin-3-yl)-4H-1,2,4-triazol-3-yl)-1H-benzo[d]imidazole]: ≤ 100 nM.
